Measured values reported in article PMC8213057, “Targeting ALK2: An Open Science Approach to Developing Therapeutics for the Treatment of Diffuse Intrinsic Pontine Glioma” (Journal of Medicinal Chemistry, 2020).

How the values were obtained:
ALK4/ACVR1B = biological target: T1, ALK4/ACVR1B (Homo sapiens, UniProt P36896); assay: 375-member kinase panel; format: biochemical; settings: Run 1, Run 2; for % enzyme activity: 1 μM; for remaining activity at 1 µM: read-out: % enzyme activity, 1 μM
T1 construct: purchased Reaction Biology Corporation
T1 sequence (P36896 24-505): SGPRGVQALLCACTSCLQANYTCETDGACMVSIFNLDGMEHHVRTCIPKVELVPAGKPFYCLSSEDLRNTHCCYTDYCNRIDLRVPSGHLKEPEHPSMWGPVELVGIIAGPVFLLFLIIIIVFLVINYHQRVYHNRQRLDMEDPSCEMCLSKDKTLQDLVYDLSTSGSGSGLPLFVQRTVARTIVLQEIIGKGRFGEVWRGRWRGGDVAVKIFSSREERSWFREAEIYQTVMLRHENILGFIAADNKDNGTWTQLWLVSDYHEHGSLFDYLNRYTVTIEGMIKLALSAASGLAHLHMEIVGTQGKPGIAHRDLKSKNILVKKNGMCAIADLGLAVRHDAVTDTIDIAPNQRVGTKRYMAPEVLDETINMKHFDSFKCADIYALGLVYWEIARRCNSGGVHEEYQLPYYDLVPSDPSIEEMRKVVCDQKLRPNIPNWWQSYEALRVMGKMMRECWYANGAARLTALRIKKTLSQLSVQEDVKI

CDC7/DBF4 = CDC7/DBF4 (Homo sapiens, UniProt O00311); settings: 1 μM; Run 1, Run 2
CDC7/DBF4, sequence (O00311 whole entry): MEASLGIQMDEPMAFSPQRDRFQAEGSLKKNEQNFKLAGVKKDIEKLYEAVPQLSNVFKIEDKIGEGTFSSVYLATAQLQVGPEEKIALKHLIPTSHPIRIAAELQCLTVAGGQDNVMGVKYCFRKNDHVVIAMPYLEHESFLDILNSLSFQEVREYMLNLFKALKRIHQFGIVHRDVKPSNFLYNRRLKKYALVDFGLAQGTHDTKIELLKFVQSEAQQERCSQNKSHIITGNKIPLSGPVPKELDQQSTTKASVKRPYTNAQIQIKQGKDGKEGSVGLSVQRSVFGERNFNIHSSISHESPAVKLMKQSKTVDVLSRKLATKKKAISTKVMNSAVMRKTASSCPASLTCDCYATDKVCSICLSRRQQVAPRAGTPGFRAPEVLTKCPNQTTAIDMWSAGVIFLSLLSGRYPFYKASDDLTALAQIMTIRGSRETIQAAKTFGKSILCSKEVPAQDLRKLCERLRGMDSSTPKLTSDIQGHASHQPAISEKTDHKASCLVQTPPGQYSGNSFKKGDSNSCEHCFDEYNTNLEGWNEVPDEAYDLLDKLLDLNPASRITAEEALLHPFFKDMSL
CDC7/DBF4, sequence (Q9UBU7 whole entry partner): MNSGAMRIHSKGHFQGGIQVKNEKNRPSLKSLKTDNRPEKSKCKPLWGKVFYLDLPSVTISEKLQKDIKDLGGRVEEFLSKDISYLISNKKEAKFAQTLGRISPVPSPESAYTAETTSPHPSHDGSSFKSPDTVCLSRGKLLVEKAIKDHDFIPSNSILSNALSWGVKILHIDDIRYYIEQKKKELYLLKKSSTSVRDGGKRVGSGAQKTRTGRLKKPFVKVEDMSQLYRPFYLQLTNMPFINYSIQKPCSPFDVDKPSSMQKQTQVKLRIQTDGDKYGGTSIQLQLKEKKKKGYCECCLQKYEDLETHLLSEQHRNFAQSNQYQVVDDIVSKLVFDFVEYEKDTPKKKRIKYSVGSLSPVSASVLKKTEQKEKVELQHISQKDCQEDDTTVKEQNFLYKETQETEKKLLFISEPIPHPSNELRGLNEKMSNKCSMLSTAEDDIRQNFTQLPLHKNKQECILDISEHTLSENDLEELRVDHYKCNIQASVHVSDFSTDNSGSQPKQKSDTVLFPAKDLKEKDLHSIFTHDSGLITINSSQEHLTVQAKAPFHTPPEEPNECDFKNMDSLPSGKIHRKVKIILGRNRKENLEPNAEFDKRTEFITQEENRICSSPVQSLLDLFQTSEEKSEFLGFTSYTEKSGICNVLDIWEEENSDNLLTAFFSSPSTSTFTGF

GSK3a = GSK3a (Homo sapiens, UniProt P49840); settings: 1 μM; Run 1, Run 2
GSK3a, sequence (P49840 whole entry): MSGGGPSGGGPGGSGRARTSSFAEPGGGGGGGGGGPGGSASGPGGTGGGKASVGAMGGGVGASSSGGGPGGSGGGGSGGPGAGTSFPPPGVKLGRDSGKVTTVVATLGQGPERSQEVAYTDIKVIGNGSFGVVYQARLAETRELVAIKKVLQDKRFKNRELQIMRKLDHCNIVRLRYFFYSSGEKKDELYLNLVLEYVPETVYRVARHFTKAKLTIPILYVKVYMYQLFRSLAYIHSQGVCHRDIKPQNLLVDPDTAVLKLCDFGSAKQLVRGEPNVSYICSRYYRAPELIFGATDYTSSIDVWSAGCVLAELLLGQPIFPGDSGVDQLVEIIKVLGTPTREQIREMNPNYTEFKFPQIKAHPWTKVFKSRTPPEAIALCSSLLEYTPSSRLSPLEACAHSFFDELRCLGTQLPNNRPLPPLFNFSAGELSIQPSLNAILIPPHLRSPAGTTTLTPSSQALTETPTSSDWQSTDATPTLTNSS

TYK1/LTK = TYK1/LTK (Homo sapiens, UniProt P29376); settings: 1 μM; Run 1, Run 2
TYK1/LTK, sequence (P29376 17-864): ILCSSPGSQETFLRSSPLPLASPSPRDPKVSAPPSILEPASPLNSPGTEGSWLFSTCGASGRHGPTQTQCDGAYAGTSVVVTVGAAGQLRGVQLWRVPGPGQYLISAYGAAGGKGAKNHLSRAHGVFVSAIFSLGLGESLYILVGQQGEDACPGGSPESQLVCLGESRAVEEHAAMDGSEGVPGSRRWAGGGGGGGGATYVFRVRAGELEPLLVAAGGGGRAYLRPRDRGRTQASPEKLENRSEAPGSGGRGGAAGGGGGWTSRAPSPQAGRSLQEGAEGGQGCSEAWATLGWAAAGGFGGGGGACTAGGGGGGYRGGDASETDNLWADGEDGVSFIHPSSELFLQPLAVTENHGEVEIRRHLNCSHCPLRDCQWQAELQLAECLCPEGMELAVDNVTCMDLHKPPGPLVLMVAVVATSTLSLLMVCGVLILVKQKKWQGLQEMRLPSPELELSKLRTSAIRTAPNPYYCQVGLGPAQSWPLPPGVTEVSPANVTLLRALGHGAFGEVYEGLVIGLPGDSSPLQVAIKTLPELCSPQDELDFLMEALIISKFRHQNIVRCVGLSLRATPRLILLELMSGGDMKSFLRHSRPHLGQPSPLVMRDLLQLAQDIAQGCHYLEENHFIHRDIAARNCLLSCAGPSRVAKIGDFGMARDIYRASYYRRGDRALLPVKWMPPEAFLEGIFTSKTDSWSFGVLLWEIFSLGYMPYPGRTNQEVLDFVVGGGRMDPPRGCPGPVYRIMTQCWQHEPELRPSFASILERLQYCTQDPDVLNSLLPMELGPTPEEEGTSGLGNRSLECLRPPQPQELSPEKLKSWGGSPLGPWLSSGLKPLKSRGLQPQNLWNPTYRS

LYN = LYN (Homo sapiens, UniProt P07948); assay: biochemical; settings: read-out: % enzyme activity, 1 μM; Run 1, Run 2
LYN, sequence (P07948 whole entry): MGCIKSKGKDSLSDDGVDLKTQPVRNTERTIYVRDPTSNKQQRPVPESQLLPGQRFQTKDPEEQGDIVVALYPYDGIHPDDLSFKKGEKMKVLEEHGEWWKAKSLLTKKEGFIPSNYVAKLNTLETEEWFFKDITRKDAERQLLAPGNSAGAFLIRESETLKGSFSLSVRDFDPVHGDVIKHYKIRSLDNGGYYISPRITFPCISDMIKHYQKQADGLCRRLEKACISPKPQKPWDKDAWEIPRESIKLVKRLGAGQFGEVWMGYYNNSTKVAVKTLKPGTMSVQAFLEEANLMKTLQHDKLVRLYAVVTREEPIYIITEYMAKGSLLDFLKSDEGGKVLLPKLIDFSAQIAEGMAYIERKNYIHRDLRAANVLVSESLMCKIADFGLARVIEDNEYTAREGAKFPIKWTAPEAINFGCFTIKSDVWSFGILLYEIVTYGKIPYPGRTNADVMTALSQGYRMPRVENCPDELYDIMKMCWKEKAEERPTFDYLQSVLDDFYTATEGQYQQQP

NEK11 = biological target: T2, NEK11 (Homo sapiens, UniProt Q8NG66); assay: biochemical; settings: read-out: % enzyme activity, 1 μM; Run 1, Run 2
T2 sequence (Q8NG66 1-645): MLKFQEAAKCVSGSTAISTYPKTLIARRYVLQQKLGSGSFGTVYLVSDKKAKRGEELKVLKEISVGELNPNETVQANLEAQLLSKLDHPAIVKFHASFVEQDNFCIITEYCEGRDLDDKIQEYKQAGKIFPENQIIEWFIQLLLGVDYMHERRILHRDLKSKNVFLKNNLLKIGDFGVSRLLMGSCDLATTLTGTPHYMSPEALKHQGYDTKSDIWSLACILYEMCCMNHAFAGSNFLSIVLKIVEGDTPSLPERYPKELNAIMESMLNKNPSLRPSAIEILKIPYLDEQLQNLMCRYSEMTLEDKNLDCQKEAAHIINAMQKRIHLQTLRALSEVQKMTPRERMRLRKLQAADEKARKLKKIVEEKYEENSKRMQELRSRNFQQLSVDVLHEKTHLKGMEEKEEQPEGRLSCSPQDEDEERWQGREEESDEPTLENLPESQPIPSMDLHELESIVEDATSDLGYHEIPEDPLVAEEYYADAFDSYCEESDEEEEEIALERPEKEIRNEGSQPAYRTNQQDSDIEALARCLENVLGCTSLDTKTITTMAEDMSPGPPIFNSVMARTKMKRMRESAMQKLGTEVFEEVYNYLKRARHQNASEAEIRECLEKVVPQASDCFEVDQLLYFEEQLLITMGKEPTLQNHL

PKG2/PRKG2 = biological target: T3, PKG2/PRKG2 (Homo sapiens, UniProt Q13237); assay: biochemical; settings: read-out: % enzyme activity, 1 μM; Run 1, Run 2
T3 sequence (Q13237 1-762): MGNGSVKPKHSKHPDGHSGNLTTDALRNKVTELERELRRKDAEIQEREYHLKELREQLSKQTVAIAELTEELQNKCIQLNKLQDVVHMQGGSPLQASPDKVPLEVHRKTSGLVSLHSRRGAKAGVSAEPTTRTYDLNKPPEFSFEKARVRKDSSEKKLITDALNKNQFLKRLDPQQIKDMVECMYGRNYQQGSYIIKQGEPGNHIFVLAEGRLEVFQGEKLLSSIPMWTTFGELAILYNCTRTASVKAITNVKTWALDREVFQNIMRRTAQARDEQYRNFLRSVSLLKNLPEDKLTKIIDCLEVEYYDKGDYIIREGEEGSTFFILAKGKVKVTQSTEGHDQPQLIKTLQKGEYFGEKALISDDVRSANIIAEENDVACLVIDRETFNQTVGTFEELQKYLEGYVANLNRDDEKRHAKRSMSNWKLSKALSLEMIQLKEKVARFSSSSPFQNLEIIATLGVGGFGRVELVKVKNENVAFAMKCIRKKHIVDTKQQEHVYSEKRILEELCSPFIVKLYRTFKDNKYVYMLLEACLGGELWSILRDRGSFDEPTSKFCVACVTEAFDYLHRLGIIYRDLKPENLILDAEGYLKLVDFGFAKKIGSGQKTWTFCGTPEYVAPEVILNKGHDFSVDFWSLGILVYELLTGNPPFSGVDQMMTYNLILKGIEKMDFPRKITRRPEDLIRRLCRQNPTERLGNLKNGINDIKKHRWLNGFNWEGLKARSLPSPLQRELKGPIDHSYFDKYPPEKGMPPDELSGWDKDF

| SMILES | % enzyme activity (ALK4/ACVR1B) [%] | remaining activity at 1 µM (ALK4/ACVR1B) [%] | % enzyme activity (CDC7/DBF4) [%] | % enzyme activity (GSK3a) [%] | % enzyme activity (TYK1/LTK) [%] | remaining activity at 1 µM (LYN) [%] | remaining activity at 1 µM (NEK11) [%] | remaining activity at 1 µM (PKG2/PRKG2) [%] |
| --- | --- | --- | --- | --- | --- | --- | --- | --- |
| COc1cc(-c2cncc(-c3ccc(N4C[C@@H](C)N(C)[C@@H](C)C4)cc3)c2C)cc(F)c1C(N)=O [Compound 26c, 2-Fluoro-6-methoxy-4-(4-methyl-5-(4-((3R,5S)-3,4,5-trimethylpiperazin-1-yl)phenyl)pyridin-3-yl)benzamide] | 81.71 | 82.4 | 93.55 | 101.44 | 99.99 | 91 | 91.9 | 98.5 |
| COc1cc(-c2cncc(-c3ccc(N4CCN(C)CC4)cc3)c2C)cc(F)c1C(N)=O [Compound 26a, 2-Fluoro-6-methoxy-4-(4-methyl-5-(4-(4-methylpiperazin-1-yl)phenyl)pyridin-3-yl)benzamide] | 68.79 | 68.8 | 91.84 | 100.80 | 99.76 | 79.9 | 90.6 | 98.9 |
